Consider five sequences from patent US12491229B2, “Stabilized peptide composition” (Shionogi & Co., Ltd., priority 2014, dated 2025).

Ends that are not written are not given here.

What all share (assay type): physicochemical
The nature of data set [1]: Solubility study 2 of each peptide against pH (white turbidity on decreasing pH). Details: key: ∘: dissolution; x: white turbidity. As to conditions: peptide 1.5 mg/g, pH decreased gradually with hydrochloride solution. On the procedure:
As shown in the study 1 described above, when the peptide was mixed directly with water for injection, the bulk was formed, and it was difficult to dissolve the bulk. So, solubility of peptides was evaluated thermodynamically by dissolving the peptide completely once with high pH, and decreasing the solution pH gradually to check pH when white turbidity was observed.
The peptide described as SEQ ID NO: 1 or SEQ ID NO: 2 was dissolved into the solution with pH10 and solubility was examined by decreasing the solution pH in each. 15 mg of the peptide described as SEQ ID NO: 1 or SEQ ID NO: 2 was mixed with water, 0.1 mol/L sodium hydroxide solution was added for dissolution, and pH was adjusted to 10. Peptide concentration was adjusted to 1.5 mg/g. In each sample solution, hydrochloride solution was added to decrease pH gradually, and the appearance of the solution was checked.

Data set [2] can be described thus: Solution stability of each peptide against pH. The following applies: for stability in the solution state: conclusion from studies on stability in solution with different pH. On the procedure:
Content and related substances were measured in accordance with the method of liquid chromatography described in general test section in Japan Pharmacopeia. To prepare the test sample, water for injection was added to the lyophilized sample, and each peptide concentration was adjusted to 0.12 mg/mL. Peak area of each peptide in the sample and the one in each standard of the drug substance were obtained, and content was calculated from dilution ratio and ratio of peak area in the sample to one in each standard described below. Residual of the content in the stability test was against the content at the time when the lyophilized sample was prepared. Related substances were calculated by ratio of peak area of the target related substance to all related substances and drug substances in each sample solution. The level of increase of the related substances was evaluated by the difference from the related substance at the moment when the lyophilized sample was prepared.
Standard solution for measuring content of the peptide described as SEQ ID NO: 1 or SEQ ID NO: 2 was prepared in each by dissolving the peptide described above into 1.6 mg/mL phosphate solution and by adjusting each peptide concentration into 0.15 mg/mL. Standard solution for measuring content of the peptide described as SEQ ID NO: 3, SEQ ID NO: 4 or SEQ ID NO: 5 was prepared in each by dissolving the peptide described above into 12.1 mg/mL of 2-amnino-2-hydroxymethyl-1,3-propanediol aqueous solution and by adjusting each peptide concentration to 0.15 mg/mL. For the stationary phase of the liquid chromatography, column with octadecyl group was used, and the measurement was performed by gradient elution method. Flow rate in the measurement was set to 1.0 mL/min.
Stability of the peptide described as SEQ ID NOs: 1-5 was evaluated in each.
The sample solution prepared with the compositions above was stored for 6 hours at 25° C. Then, the level of increase of related substances derived from the peptides described as SEQ ID NO: 1, SEQ ID NO: 2 or SEQ ID NO: 3 was measured in each, and residual of the peptides described as SEQ ID NO: 4 or SEQ ID NO: 5 was measured in each. The analytical procedure for the related substances and peptide contents was described above.

Data set [3] can be described thus: Solubility study 1 of each peptide against solution pH. The following applies: pH 2-12, peptide mixed at 3 mg/mL in water for injection adjusted with hydrochloride or sodium hydroxide solution; FIG. 1. As for the experimental part:
Solubility of the peptides described as SEQ ID NOs: 1-5 was evaluated with the condition of pH 2-12. Hydrochloride solution or sodium hydroxide solution was added to water for injection to adjust pH, and each peptide was mixed with the adjusted solution, where the peptide concentration was set to 3 mg/mL. The mixed solution was filtered, the filtered solution was diluted with 10-20 parts of water for injection, and peak area of each peptide was obtained by liquid chromatography (same test procedure described above). From peak area of each peptide, dilution ratio of the filtered solution, peak area and concentration of each standard solution described above, peptide concentration was obtained.

With EYYELFVNI [SEQ ID NO: 1, EYYELFVNI], the Solution state result was “x” in data set [1] (pH 5.4); “∘” in data set [1] (pH 5.6); “∘” in data set [1] (pH 6); “∘” in data set [1] (pH 6.6); “∘” in data set [1] (pH 7.9); “∘” in data set [1] (pH 10). In data set [2], the “stability in the solution state” value is given as “good stability”. In addition, in data set [3], the “Solubility of each peptide against pH” value is listed as “decreased with decreasing pH of the solution”.
Take IYNEYIYDL [SEQ ID NO: 2, IYNEYIYDL]: the Solution state entry in data set [1] (pH 5) is on record as “x”; in data set [1] (pH 5.5) it was “∘”; in data set [1] (pH 7), “∘”; in data set [1] (pH 8), “∘”; in data set [1] (pH 9) it was “∘”; in data set [1] (pH 10), “∘”. Moreover, the “stability in the solution state” value in data set [2] is “poor stability”. For the same sequence, in data set [3], the “Solubility of each peptide against pH” value is on record as “decreased with decreasing pH of the solution”.
Regarding “KTVNELQNL (listed as Homo sapiens) [SEQ ID NO: 5, peptide derived from KOC1 protein]”, in data set [2], the “stability in the solution state” value is given as “poor stability”. Also, in data set [2] (five-peptide solution (Table 2) pH 8-11 stored for 6 hours at 25° C., FIGS. 2-4, 2-5), the “residual of the peptide” value was “prominently decreased and solution stability decreased with increasing solution pH”.
Consider “RYCNLEGPPI (listed as Homo sapiens) [SEQ ID NO: 3, peptide derived from URLC10 protein]”, for which, in data set [2], the “stability in the solution state” value is given as “poor stability”. Besides, the “level of increase of related substances derived from the peptide” value in data set [2] (five-peptide solution (Table 2) pH 8-11 stored for 6 hours at 25° C., FIGS. 2-1 to 2-3) was “increased and solution stability decreased, when solution pH was 10.0-11.0”.
With VYGIRLEHF [SEQ ID NO: 4, VYGIRLEHF], the “stability in the solution state” value in data set [2] is reported as “good stability”. In addition, the “Solubility of each peptide against pH” value in data set [3] was “low when solution pH was around neutral”.
